Article PMC10877577 (ACS Chemical Biology, 2024)
Entries after “also recorded” stand apart in the source; their conditions may differ.

Experiments:
[1] = test system: aMinoC1 sdAb; test: SPR of peptide-Fc or small-molecule analytes against aMinoC1; assay type: binding, alpaca; details: molecules closely related to minocycline
Protocol: (§1) Binding assays were carried out using 1x HBS-EP+ running buffer. Various concentrations (2.5 μM with 2-fold serial dilutions) of the analyte were injected for 150 s at 30 μL/min with 150 s dissociation time. Glycine-HCl (pH 2.0) was used as the regeneration buffer for the sensor chips. For the rechallenge experiment, aMinoC1 was immobilized on a CM5 sensor chip and CX7C peptide-Fc conjugates were loaded at 100 nM and injected as the analyte for 150 s at 30 μL/min. Following the injection of peptide-Fc, a small molecule at 1 μM was injected for 300 s at 30 μL/min, using dual injection function on a Biacore 8k instrument, to dissociate the peptide-Fc from the aMinoC1-peptide complex. The system was then washed using HBS-P^+ buffer for 300 s at 30 μL/min prior to rechallenge with peptide-Fc. The cycle was repeated three times following a final dissociation step of 300 s. For the alanine scanning experiments, the anti-minocycline antibody (sdAb-muIgG2a-Fc fusion) was captured on a Protein A series S sensor chip, to a density of 3000 RU. […] Glycine-HCl (pH 1.5) was used as the regeneration buffer. In each case, flow cell 1 was used for reference subtraction, and a “0 concentration” sensogram of buffer alone was used as a double reference subtraction to factor for drift. Data analysis was carried out using Biacore T200 Evaluation Software, version 3.0, and Biacore Insight evaluation software. […]

[2] = test system: aMinoC22 sdAb; test: SPR of related small molecules against aMinoC22; assay type: binding, alpaca; details: molecules closely related to minocycline
Protocol: as §1

[3] = test system: aMinoC1-peptide complex; test: SPR rechallenge: small-molecule-driven dissociation of peptide-Fc from immobilized aMinoC1; assay type: binding; details: peptide-Fc 100 nM, small molecule 1 μM
Protocol: Binding assays were carried out using 1x HBS-EP+ running buffer. Various concentrations (2.5 μM with 2-fold serial dilutions) of the analyte were injected for 150 s at 30 μL/min with 150 s dissociation time. Glycine-HCl (pH 2.0) was used as the regeneration buffer for the sensor chips. For the rechallenge experiment, aMinoC1 was immobilized on a CM5 sensor chip and CX7C peptide-Fc conjugates were loaded at 100 nM and injected as the analyte for 150 s at 30 μL/min. Following the injection of peptide-Fc, a small molecule at 1 μM was injected for 300 s at 30 μL/min, using dual injection function on a Biacore 8k instrument, to dissociate the peptide-Fc from the aMinoC1-peptide complex. The system was then washed using HBS-P^+ buffer for 300 s at 30 μL/min prior to rechallenge with peptide-Fc. The cycle was repeated three times following a final dissociation step of 300 s. For the alanine scanning experiments, the anti-minocycline antibody (sdAb-muIgG2a-Fc fusion) was captured on a Protein A series S sensor chip, to a density of 3000 RU. […] Glycine-HCl (pH 1.5) was used as the regeneration buffer. In each case, flow cell 1 was used for reference subtraction, and a “0 concentration” sensogram of buffer alone was used as a double reference subtraction to factor for drift. Data analysis was carried out using Biacore T200 Evaluation Software, version 3.0, and Biacore Insight evaluation software. The 1:1 Langmuir binding model was used to calculate the association (ka), dissociation (kd) rate constants, and equilibrium dissociation constant (KD).

[4] = test system: MinoCAR-transduced PBMC against SupT1-EGFR+ target cells; assay type: cell-based; details: 0.1, 1 and 10 μM, 24 h, 1:2 E/T
Protocol: Transduced CAR T cells were determined by staining for the transduction marker RQR8 and normalized by the addition of nontransduced T cells. Effector cells were cocultured with 5.0 × 10^4 number of target cells (SupT1-NT, SupT1-EGFR+, SKOV3-mKate) to achieve the desired effector cell to target ratio. […] Cocultures were incubated for 24–72 h at 37 °C and 5% CO2. After incubation, plates were centrifuged at 400g for 5 min, and the supernatant containing secreted cytokines was collected for cytokine analysis. Cells were stained with anti-hCD34-APC and anti-CD3-PeCy7 to differentiate effector T cells and target cells. Cells were washed with 300 μL o PBS and stained with SYTOX Blue Dead Cell Stain dye. The percentage of target cell survival was measured relative to the number of live target cells cocultured with nonspecific CAR T cells or nontransduced PBMCs.

[5] = target: TetRB; details: cited from earlier work
[6] = SPR of anti-minocycline sdAb-Fc clones binding to minocycline
Protocol: as §1

[7] = Isothermal titration calorimetry of aMinoC1 binding to minocycline; details: sdAb-Fc 2 μM titrated with minocycline 50 μM, 25 °C; read-out: KD (ITC)
Protocol: ITC measurements were performed using the PEAQ-ITC nonautomated (MicroCal) at 25 °C. The antibody sample was dialyzed overnight using 5 L of PBS (20 mM Na3PO4, 150 mM NaCl, pH 7.4). […] The concentration of the anti-minocycline sdAb (as murine IgG2a Fc fusion) was determined using extinction coefficients ε280 nm = 31,065 M^–1 cm^–1.

[8] = nanoDSF thermal unfolding of aMinoC1; assay type: physicochemical
Protocol: A dye-free protocol was used whereby the intrinsic fluorescence of tryptophan and tyrosine was measured by scanning samples at 330 and 350 nm to determine protein unfolding. […] Melting scan was carried out by setting the run at 1 °C/min temperature increments from 20 to 95 °C. Tm was calculated as first derivative of 350/330 nm ratio.

Molecule: CN(C)[C@@H]1C(O)=C(C(N)=O)C(=O)[C@@]2(O)C(O)=C3C(=O)c4c(O)cccc4[C@@](C)(O)[C@H]3C[C@@H]12 [tetracycline]
- binding to aMinoC1 (SPR) [1]: Neither sdAb showed an interaction; also recorded: lack of binding; also recorded: without cross-reactivity
- binding to aMinoC22 (SPR) [2]: Neither sdAb showed an interaction; also recorded: lack of binding
- GWARA-Fc dissociation from immobilized aMinoC1 on small-molecule injection [3]: No enhanced dissociation
- peptide-Fc (HWAQA, PWAYS and QWAMM) dissociation from immobilised aMinoC1 on small-molecule injection [3]: No enhanced dissociation
- effect of other small molecules on MinoCAR cytotoxicity [4]: not affected
- Kd [5]: 2.8 nM

B1: aMinoC1: anti-minocycline single-domain antibody clone 1 from immunized alpaca, tested as sdAb-Fc (antibody, V domains shown)
VH: QVQLESGGGLVQPGSSLRLSCAASGRTFSSYNIGWFRQAPKEREFVAAISWSGARTYYADSVKGRFTISRDNAKNTVYLQMNSLKPEDTAVYSCAAGRGWGTEAILDYWGQGTQVSSA
- ka [6]: 1.13e+06 M⁻¹ s⁻¹
- kd [6]: 0.036 s⁻¹
- Kd [7]: 24.9 nM
- first unfolding midpoint (Tm50) ([8]; aMinoC1 alone, PBS pH 7.4): 79.5 °C
- improvement of Tm50 with minocycline ([8]; minocycline 1 nM to 2.5 mM): over 10 °C
- Tm50 on coincubation with minocycline ([8]; minocycline ranging from 1 nM to 2.5 mM): 89.6 °C
